We go through three compounds from patent publication US6380257B1, “Aromatic di-keto derivatives, processes for their production and their use as a pharmaceutical” (Aventis Pharma Deutschland GmbH, priority 1999, dated 2002).

Like-named read-outs stand apart in the source and are kept apart here.

Data set [1] concerns the target T1, glucose-6-phosphate translocase from rat liver microsomes (Rattus norvegicus, UniProt F7EWB7).
T1 construct: glucose-6-phosphate translocase from rat liver microsomes; from tissue; host or cells: rat liver microsomes
T1 sequence (F7EWB7 1-429): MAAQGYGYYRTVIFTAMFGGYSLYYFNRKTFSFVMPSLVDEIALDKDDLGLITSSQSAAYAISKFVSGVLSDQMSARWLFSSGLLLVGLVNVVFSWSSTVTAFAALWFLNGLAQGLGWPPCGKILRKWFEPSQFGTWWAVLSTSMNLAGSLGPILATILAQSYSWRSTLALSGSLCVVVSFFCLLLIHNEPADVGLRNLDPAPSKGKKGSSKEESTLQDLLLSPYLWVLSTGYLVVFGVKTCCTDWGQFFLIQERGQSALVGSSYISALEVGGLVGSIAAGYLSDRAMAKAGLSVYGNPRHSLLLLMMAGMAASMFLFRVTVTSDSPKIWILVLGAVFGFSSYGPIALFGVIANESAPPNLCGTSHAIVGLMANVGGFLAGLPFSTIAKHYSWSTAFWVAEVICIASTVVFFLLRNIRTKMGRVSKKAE
The data set can be described thus: Inhibition of glucose-6-phosphate translocase from rat liver microsomes. Type of data set: biochemical. In general terms: Liver microsomes are vesicles of endoplasmic reticulum, rich in cytochrome P450 enzymes.

Data set [2] deals with T2, microsomal glucose-6-phosphatase (Rattus norvegicus, UniProt P43428).
T2 construct: from tissue; host or cells: liver microsomes (rat inferred)
T2 sequence (P43428 1-357): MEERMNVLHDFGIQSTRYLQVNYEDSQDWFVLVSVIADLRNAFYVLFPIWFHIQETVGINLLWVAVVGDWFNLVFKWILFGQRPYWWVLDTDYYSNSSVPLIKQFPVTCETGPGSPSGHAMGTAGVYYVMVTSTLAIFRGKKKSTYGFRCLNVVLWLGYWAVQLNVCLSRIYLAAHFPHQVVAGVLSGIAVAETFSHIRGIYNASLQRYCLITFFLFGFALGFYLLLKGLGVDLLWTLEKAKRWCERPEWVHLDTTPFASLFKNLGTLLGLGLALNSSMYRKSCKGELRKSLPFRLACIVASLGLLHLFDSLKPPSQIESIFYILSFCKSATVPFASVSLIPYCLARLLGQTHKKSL
Description: Inhibition of microsomal glucose-6-phosphatase. The format is biochemical.

Data set [3] in a line: Stability of mumbaistatin in solution. The format is physicochemical.

As to `COC(=O)CC1CCC2(O1)OC1(OC(=O)c3c(OC)cc4c(c31)C(=O)c1c(O)cccc1C4=O)c1c(OC)cccc12` (stereo not shown) [XIXB], the IC50 (commonly the concentration needed to halve the response being measured) in data set [1] (read-out: Inhibition of glucose-6-phosphate translocase: IC50) is over 100000 nM.

As for `NC(=O)c1c(O)cc2c(c1C(=O)c1c(O)cccc1C1(O)CCC(CC(=O)O)O1)C(=O)c1c(O)cccc1C2=O` (stereo not shown) [XXIIIA], the IC50 in data set [1] (read-out: inhibits glucose-6-phosphate translocase with an IC50) is about 1000 nM.

Turning to mumbaistatin, the “Inhibition of microsomal glucose-6-phosphatase in 10 μM solution” value in data set [2] was “activity was not demonstrable”. Further, the “stability in solution at acid pH” value in data set [3] (acid pH, conversion e.g. to compound of formula XIXD) is listed as “rapidly undergoes a complex conversion”. The stability in solution entry in data set [3] (pH of around 6 to 9) is on record as “limited stability”. The IC50 in data set [1] (rat liver microsomes, listed as mumbaistain, read-out: Inhibition of glucose-6-phosphate translocase, IC50) is about 5 nM; in data set [1] (rat liver microsomes, read-out: Inhibition of glucose-6-phosphate translocase, IC50), 5 nM.
